Patent publication US20080085871A1, “Novel polysaccharide pro-drug 5-fluorouracil (5-FU) with enhanced target specificity for colorectal cancer and its preparation methods” (priority 2006, published 2008)

Columns and labels:
[1] = tested on: HT-29 cell; assay: In vitro suppression of HT-29 cell proliferation; format: cell-based; conditions: Homo sapiens, details not enclosed, read-out: IC50 for suppressing HT-29 cell proliferation
Excerpt: (§1) However, it should be understood that the 5-FU prodrug exerts its efficacy after it is digested and hydrolyzed at the target sites in the body. Because it is a prodrug, it has no direct effect on in vitro colorectal cancer cell lines.

[2] = tested on: COLO-205 cell; assay: In vitro suppression of COLO-205 cell proliferation; format: cell-based; conditions: Homo sapiens, details not enclosed, read-out: IC50 for suppressing COLO-205 cell proliferation
Excerpt: as §1

[3] = tested on: normal mice; assay: Survival of normal mice after 7-day treatment (toxicological effects); format: in vivo; conditions: for Survival Rate (%) after 7-day Treatment / Survivors/total after 7-day Treatment: normal mice, n = 10
Experimental: Normal mice are administered with 7.5, 22.5, or 67.5 mg/kg/d of 5-FU and the 5-FU prodrug (as equivalent 5-FU dose). […]

[4] = tested on: mice with colorectal cancer induced by DMH-DSS; assay: Therapeutic effects on mice with colorectal cancer induced by DMH-DSS; format: in vivo; conditions: 22.5 mg/kg/d equivalent 5-FU, two 7-day treatment periods with 7 days rest (21 days)
Excerpt: The doses delivered are equivalent with 1 time per day for 7 days as one treatment period, and then another period of treatment after 7 days of rest (i.e., a total of 21 days, two treatment periods with one week of rest in between).

[5] = Distribution of 5-FU in different parts of the GI tract after oral feeding to mice; format: in vivo; parameters: key to 5-FU (μg/g) Stomach / 5-FU (μg/g) Proximal Small Intestine / 5-FU (μg/g) Distal Small Intestine / 5-FU (μg/g) Ileum and Cecum / 5-FU (μg/g) Colon and Rectum: —: dashed lines represent undetectable levels of 5-FU; conditions: for 5-FU (μg/g) Colon and Rectum / 5-FU (μg/g) Distal Small Intestine / 5-FU (μg/g) Ileum and Cecum / 5-FU (μg/g) Proximal Small Intestine / 5-FU (μg/g) Stomach: oral 22.5 mg/kg, n = 6, x ± s
Excerpt: Note that the dashed lines represent undetectable levels of 5-FU.

[6] = 7.5 mg/kg/d (equivalent 5-FU dose)
[7] = 22.5 mg/kg/d (equivalent 5-FU dose)
[8] = 67.5 mg/kg/d (equivalent 5-FU dose)

Q: Which IC50 [1] does the source give for O=c1[nH]cc(F)c(=O)[nH]1 [Example 5-FU, 5-fluorouracil] here?
A: 13 µM

Q: And the IC50 [2]?
A: 3.2 µM

Q: What about the “Survival Rate (%) after 7-day Treatment” value [3, 6] of the same compound?
A: 100%

Q: And the “Survivors/total after 7-day Treatment” value [3, 6]?
A: (10/10)

Q: And the “Survival Rate (%) after 7-day Treatment” value [3, 7]?
A: 70%

Q: What about the “Survivors/total after 7-day Treatment” value [3, 7] of the same compound?
A: (7/10)

Q: And the “Survival Rate (%) after 7-day Treatment” value [3, 8]?
A: 0%

Q: What about the “Survivors/total after 7-day Treatment” value [3, 8] of the same compound?
A: (0/10)

Q: What about the “toxic effects in the first dose” value ([3]; normal mice, 7.5, 22.5, or 67.5 mg/kg/d, first dose) of the same compound?
A: no obvious toxic effects

Q: What about the “Survival at the End of the Study” value ([4]; n = 10) of the same compound?
A: 5/10

Q: What about the “Survival Rate” value ([4]; n = 10, listed as Generic 5-Fluorouracil (5-FU)) of the same compound?
A: 50%

Q: And the “Survival Rate” value ([4]; n = 10, listed as generic 5-FU)?
A: 50%

Q: What about the “Tumor Weight Index” value ([4]; x ± s) of the same compound?
A: 447 ± 113.5 mg/g

Q: What about the “Tumor Weight as Compared to the Saline Control” value ([4]; listed as Generic 5-Fluorouracil (5-FU)) of the same compound?
A: 65%

Q: What about the “Tumor Weight as Compared to the Saline Control” value ([4]; listed as generic 5-FU) of the same compound?
A: 65%

Q: And the “main site of distribution / detection in the GI tract” value ([5]; fed orally)?
A: mucosa of stomach and proximal part of the small intestine

Q: What about the “5-FU (μg/g) Colon and Rectum” value ([5]; 1 hr) of the same compound?
A: —

Q: And the “5-FU (μg/g) Distal Small Intestine” value ([5]; 1 hr)?
A: 0.42 ± 0.21 µg/g

Q: What about the “5-FU (μg/g) Ileum and Cecum” value ([5]; 1 hr) of the same compound?
A: —

Q: And the “5-FU (μg/g) Proximal Small Intestine” value ([5]; 1 hr)?
A: 1.75 ± 0.24 µg/g

Q: What about the “5-FU (μg/g) Stomach” value ([5]; 1 hr) of the same compound?
A: 3.04 ± 0.49 µg/g

Q: And the “5-FU (μg/g) Colon and Rectum” value ([5]; 2.5 hr)?
A: 0.25 ± 0.12 µg/g

Q: And the “5-FU (μg/g) Distal Small Intestine” value ([5]; 2.5 hr)?
A: 0.43 ± 0.24 µg/g

Q: What about the “5-FU (μg/g) Ileum and Cecum” value ([5]; 2.5 hr) of the same compound?
A: 0.37 ± 0.12 µg/g

Q: And the “5-FU (μg/g) Proximal Small Intestine” value ([5]; 2.5 hr)?
A: 0.64 ± 0.42 µg/g

Q: And the “5-FU (μg/g) Stomach” value ([5]; 2.5 hr)?
A: 1.97 ± 0.31 µg/g

Q: What about the “5-FU (μg/g) Colon and Rectum” value ([5]; 3.5 hr) of the same compound?
A: 0.41 ± 0.24 µg/g

Q: What about the “5-FU (μg/g) Distal Small Intestine” value ([5]; 3.5 hr) of the same compound?
A: 0.62 ± 0.12 µg/g

Q: What about the “5-FU (μg/g) Ileum and Cecum” value ([5]; 3.5 hr) of the same compound?
A: 0.42 ± 0.21 µg/g

Q: What about the “5-FU (μg/g) Proximal Small Intestine” value ([5]; 3.5 hr) of the same compound?
A: 0.53 ± 0.32 µg/g

Q: And the “5-FU (μg/g) Stomach” value ([5]; 3.5 hr)?
A: 1.12 ± 0.46 µg/g

Q: What about the “5-FU (μg/g) Colon and Rectum” value ([5]; 4.5 hr) of the same compound?
A: 0.56 ± 0.06 µg/g

Q: And the “5-FU (μg/g) Distal Small Intestine” value ([5]; 4.5 hr)?
A: 0.35 ± 0.21 µg/g

Q: What about the “5-FU (μg/g) Ileum and Cecum” value ([5]; 4.5 hr) of the same compound?
A: 0.37 ± 0.12 µg/g

Q: And the “5-FU (μg/g) Proximal Small Intestine” value ([5]; 4.5 hr)?
A: 0.42 ± 0.91 µg/g

Q: What about the “5-FU (μg/g) Stomach” value ([5]; 4.5 hr) of the same compound?
A: 0.97 ± 0.23 µg/g

Q: What about the “5-FU (μg/g) Colon and Rectum” value ([5]; 6 hr) of the same compound?
A: 0.17 ± 0.04 µg/g

Q: What about the “5-FU (μg/g) Distal Small Intestine” value ([5]; 6 hr) of the same compound?
A: 0.31 ± 0.09 µg/g

Q: What about the “5-FU (μg/g) Ileum and Cecum” value ([5]; 6 hr) of the same compound?
A: 0.21 ± 0.11 µg/g

Q: What about the “5-FU (μg/g) Proximal Small Intestine” value ([5]; 6 hr) of the same compound?
A: 0.37 ± 0.05 µg/g

Q: What about the “5-FU (μg/g) Stomach” value ([5]; 6 hr) of the same compound?
A: 0.63 ± 0.31 µg/g

Q: And the “5-FU (μg/g) Colon and Rectum” value ([5]; 9 hr)?
A: 0.08 ± 0.05 µg/g

Q: And the “5-FU (μg/g) Distal Small Intestine” value ([5]; 9 hr)?
A: 0.17 ± 0.06 µg/g

Q: What about the “5-FU (μg/g) Ileum and Cecum” value ([5]; 9 hr) of the same compound?
A: 0.03 ± 0.01 µg/g

Q: And the “5-FU (μg/g) Proximal Small Intestine” value ([5]; 9 hr)?
A: 0.17 ± 0.04 µg/g

Q: And the “5-FU (μg/g) Stomach” value ([5]; 9 hr)?
A: 0.33 ± 0.18 µg/g

Q: And the “5-FU (μg/g) Colon and Rectum” value ([5]; 12 hr)?
A: 0.05 ± 0.02 µg/g

Q: What about the “5-FU (μg/g) Distal Small Intestine” value ([5]; 12 hr) of the same compound?
A: 0.07 ± 0.04 µg/g

Q: And the “5-FU (μg/g) Ileum and Cecum” value ([5]; 12 hr)?
A: 0.04 ± 0.02 µg/g

Q: And the “5-FU (μg/g) Proximal Small Intestine” value ([5]; 12 hr)?
A: 0.03 ± 0.01 µg/g

Q: What about the “5-FU (μg/g) Stomach” value ([5]; 12 hr) of the same compound?
A: 0.06 ± 0.03 µg/g

Q: What about the “5-FU (μg/g) Colon and Rectum” value ([5]; 15 hr) of the same compound?
A: —

Q: And the “5-FU (μg/g) Distal Small Intestine” value ([5]; 15 hr)?
A: —

Q: And the “5-FU (μg/g) Ileum and Cecum” value ([5]; 15 hr)?
A: —

Q: And the “5-FU (μg/g) Proximal Small Intestine” value ([5]; 15 hr)?
A: —

Q: And the “5-FU (μg/g) Stomach” value ([5]; 15 hr)?
A: —
